Data on twelve compounds can be found in ChEMBL document CHEMBL3351874, “Rational design of inhibitors of the bacterial cell wall synthetic enzyme GlmU using virtual screening and lead-hopping” (Bioorg Med Chem, 2014).

The target in series [1] is Bifunctional protein GlmU (Escherichia coli, UniProt C3SLB7). The series is described as follows: Inhibition of Escherichia coli ATCC 27325 GlmU expressed in Escherichia coli HMS174(DE3) incubated for 15 mins prior to MgCl2 addition measured after 30 mins by malachite green staining-based assay.
Series [2] can be described thus: Inhibition of Haemophilus influenzae ATCC 51907 GlmU expressed in Escherichia coli BL21(DE3) incubated for 15 mins prior to MgCl2 addition measured after 30 mins by malachite green staining-based assay.
Series [3] can be described thus: Serum protein binding in human at 10 uM after 30 mins by ultrafiltration method. It is filed as ADME. As to conditions: read-out: PB (converted).
The next series deals with Aurora kinase B (Homo sapiens, UniProt Q96GD4). The series is described as follows: Inhibition of human AURKB incubated for 20 mins prior to MgCl2 addition measured after 90 mins by mobility shift assay.
The target in series [4] is T1, Interleukin-1 receptor-associated kinase 4 (Homo sapiens, UniProt Q9NWZ3).
T1 sequence (Q9NWZ3 whole entry): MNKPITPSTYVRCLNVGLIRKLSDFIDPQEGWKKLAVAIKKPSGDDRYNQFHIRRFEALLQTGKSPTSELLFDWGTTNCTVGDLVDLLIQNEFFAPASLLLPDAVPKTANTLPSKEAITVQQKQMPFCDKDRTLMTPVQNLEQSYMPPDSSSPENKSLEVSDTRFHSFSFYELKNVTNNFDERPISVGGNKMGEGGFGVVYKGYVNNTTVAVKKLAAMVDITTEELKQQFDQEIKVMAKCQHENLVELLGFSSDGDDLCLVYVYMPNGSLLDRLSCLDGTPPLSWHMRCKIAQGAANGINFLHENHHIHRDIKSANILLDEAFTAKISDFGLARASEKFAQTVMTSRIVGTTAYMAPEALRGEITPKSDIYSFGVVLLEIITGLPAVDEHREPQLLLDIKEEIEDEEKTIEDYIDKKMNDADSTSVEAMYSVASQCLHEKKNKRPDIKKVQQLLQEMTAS
The series is described as follows: Inhibition of human IRAK4 incubated for 20 mins prior to MgCl2 addition measured after 90 mins by mobility shift assay.

Series [5] addresses Interleukin-1 receptor-associated kinase 1 (Homo sapiens, UniProt P51617). The series is described as follows: Inhibition of human IRAK1 incubated for 20 mins prior to MgCl2 addition measured after 90 mins by mobility shift assay.
In series [6] the target is Tyrosine-protein kinase JAK1 (Homo sapiens, UniProt P23458). Nature of the series: Inhibition of human JAK1 incubated for 20 mins prior to MgCl2 addition measured after 90 mins by mobility shift assay.
Series [7] addresses Tyrosine-protein kinase JAK2 (Homo sapiens, UniProt O60674). The series is described as follows: Inhibition of human JAK2 incubated for 20 mins prior to MgCl2 addition measured after 90 mins by mobility shift assay.
Series [8] has as its target T2, Tyrosine-protein kinase JAK3 (Homo sapiens, UniProt P52333).
T2 sequence (P52333 whole entry): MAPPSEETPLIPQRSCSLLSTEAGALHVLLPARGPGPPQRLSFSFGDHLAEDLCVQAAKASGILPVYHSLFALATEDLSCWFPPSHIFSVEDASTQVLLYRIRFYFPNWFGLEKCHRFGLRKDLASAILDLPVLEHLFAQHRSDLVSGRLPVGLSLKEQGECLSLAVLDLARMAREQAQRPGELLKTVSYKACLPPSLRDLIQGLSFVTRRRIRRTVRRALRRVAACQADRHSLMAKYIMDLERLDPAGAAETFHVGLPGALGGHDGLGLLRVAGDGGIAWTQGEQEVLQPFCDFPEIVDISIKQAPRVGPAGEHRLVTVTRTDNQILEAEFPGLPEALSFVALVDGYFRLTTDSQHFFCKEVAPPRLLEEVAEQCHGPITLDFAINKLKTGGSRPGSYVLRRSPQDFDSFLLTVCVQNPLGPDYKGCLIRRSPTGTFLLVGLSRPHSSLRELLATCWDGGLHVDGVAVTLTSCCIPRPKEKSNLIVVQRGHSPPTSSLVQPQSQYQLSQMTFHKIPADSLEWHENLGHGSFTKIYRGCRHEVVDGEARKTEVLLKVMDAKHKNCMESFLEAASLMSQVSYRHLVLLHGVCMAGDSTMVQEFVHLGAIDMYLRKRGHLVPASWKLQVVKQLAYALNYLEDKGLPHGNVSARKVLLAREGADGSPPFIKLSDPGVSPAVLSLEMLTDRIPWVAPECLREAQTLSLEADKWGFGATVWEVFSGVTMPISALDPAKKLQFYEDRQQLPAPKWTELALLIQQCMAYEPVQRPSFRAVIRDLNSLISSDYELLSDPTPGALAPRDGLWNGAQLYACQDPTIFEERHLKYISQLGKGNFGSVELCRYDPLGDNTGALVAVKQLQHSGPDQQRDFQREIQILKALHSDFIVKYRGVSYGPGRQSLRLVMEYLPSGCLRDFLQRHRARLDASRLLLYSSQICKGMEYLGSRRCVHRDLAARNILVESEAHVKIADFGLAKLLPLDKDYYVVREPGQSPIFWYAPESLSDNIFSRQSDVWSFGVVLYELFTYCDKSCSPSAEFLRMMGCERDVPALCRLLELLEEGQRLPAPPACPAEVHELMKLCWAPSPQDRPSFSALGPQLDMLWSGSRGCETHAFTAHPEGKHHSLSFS
Nature of the series: Inhibition of human JAK3 incubated for 20 mins prior to MgCl2 addition measured after 90 mins by mobility shift assay.

The target in series [9] is Cyclin-dependent kinase 1 (Homo sapiens, UniProt P06493). Nature of the series: Inhibition of human CDK1 incubated for 20 mins prior to MgCl2 addition measured after 90 mins by mobility shift assay.
Series [10] has as its target Cyclin-dependent kinase 2 (Homo sapiens, UniProt P24941). Nature of the series: Inhibition of human CDK2 incubated for 20 mins prior to MgCl2 addition measured after 90 mins by mobility shift assay.
For series [11], the target named is Cyclin-dependent kinase 9 (Homo sapiens, UniProt P50750). Nature of the series: Inhibition of human CDK9 incubated for 20 mins prior to MgCl2 addition measured after 90 mins by mobility shift assay.

The IC50 is the concentration at which inhibition is half-maximal.

Bifunctional protein GlmU, sequence (C3SLB7 whole entry): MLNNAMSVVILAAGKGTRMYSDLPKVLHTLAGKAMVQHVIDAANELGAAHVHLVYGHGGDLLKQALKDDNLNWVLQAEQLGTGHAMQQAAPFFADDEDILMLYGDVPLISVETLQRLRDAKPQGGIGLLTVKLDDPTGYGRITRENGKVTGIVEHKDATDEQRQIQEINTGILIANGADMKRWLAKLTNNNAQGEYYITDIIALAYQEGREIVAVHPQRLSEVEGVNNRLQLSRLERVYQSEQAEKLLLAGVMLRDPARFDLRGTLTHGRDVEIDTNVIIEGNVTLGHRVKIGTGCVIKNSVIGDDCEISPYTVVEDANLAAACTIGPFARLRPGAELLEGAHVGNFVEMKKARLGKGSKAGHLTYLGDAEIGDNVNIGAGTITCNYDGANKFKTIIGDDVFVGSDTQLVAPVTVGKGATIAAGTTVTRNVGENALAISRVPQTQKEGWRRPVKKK
Tyrosine-protein kinase JAK2, sequence (O60674 whole entry): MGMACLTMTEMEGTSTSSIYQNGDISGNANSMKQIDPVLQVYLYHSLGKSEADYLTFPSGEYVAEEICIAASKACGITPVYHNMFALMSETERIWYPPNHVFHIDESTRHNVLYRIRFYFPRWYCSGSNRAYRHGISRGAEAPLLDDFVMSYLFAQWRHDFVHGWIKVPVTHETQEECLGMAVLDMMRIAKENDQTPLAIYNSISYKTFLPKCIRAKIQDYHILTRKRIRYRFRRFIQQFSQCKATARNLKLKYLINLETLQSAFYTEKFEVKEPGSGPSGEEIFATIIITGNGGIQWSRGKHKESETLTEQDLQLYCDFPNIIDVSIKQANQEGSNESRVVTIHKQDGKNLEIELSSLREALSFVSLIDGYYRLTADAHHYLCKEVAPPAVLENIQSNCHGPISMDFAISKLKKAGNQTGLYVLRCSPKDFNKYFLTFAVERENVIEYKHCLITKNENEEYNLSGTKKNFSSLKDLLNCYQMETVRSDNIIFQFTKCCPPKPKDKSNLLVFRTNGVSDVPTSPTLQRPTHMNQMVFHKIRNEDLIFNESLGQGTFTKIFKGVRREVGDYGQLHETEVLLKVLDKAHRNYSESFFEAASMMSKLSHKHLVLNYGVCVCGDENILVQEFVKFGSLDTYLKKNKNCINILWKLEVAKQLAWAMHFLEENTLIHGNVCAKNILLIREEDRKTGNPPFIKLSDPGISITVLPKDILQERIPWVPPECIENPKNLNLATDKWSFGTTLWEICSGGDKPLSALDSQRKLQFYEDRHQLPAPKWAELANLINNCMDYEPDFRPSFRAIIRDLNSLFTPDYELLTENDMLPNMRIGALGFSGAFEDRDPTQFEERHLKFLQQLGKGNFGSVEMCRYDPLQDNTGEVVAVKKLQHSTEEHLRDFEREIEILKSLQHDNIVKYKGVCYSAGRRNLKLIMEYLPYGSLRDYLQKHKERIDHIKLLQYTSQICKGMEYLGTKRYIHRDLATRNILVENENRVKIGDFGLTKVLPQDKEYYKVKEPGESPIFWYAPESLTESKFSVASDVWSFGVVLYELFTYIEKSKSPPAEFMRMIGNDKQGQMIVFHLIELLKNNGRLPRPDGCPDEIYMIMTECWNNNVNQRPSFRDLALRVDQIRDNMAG
Aurora kinase B, sequence (Q96GD4 whole entry): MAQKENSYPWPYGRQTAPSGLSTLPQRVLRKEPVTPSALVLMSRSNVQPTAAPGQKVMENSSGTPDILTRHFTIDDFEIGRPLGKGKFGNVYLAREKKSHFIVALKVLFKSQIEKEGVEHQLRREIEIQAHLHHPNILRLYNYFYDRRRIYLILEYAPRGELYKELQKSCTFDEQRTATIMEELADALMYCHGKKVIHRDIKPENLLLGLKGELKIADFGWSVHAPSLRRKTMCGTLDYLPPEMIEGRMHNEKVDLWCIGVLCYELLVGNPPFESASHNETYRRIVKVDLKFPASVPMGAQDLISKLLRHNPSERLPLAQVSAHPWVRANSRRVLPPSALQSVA
Cyclin-dependent kinase 9, sequence (P50750 whole entry): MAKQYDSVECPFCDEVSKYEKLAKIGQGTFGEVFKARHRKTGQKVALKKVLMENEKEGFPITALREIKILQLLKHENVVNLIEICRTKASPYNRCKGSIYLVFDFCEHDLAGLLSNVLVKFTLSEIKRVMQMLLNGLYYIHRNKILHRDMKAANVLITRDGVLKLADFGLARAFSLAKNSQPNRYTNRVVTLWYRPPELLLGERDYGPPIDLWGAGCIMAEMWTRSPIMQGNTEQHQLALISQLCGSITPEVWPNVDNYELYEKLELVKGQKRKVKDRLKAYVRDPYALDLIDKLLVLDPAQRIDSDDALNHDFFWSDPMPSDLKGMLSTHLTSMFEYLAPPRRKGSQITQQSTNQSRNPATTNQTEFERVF
Tyrosine-protein kinase JAK1, sequence (P23458 whole entry): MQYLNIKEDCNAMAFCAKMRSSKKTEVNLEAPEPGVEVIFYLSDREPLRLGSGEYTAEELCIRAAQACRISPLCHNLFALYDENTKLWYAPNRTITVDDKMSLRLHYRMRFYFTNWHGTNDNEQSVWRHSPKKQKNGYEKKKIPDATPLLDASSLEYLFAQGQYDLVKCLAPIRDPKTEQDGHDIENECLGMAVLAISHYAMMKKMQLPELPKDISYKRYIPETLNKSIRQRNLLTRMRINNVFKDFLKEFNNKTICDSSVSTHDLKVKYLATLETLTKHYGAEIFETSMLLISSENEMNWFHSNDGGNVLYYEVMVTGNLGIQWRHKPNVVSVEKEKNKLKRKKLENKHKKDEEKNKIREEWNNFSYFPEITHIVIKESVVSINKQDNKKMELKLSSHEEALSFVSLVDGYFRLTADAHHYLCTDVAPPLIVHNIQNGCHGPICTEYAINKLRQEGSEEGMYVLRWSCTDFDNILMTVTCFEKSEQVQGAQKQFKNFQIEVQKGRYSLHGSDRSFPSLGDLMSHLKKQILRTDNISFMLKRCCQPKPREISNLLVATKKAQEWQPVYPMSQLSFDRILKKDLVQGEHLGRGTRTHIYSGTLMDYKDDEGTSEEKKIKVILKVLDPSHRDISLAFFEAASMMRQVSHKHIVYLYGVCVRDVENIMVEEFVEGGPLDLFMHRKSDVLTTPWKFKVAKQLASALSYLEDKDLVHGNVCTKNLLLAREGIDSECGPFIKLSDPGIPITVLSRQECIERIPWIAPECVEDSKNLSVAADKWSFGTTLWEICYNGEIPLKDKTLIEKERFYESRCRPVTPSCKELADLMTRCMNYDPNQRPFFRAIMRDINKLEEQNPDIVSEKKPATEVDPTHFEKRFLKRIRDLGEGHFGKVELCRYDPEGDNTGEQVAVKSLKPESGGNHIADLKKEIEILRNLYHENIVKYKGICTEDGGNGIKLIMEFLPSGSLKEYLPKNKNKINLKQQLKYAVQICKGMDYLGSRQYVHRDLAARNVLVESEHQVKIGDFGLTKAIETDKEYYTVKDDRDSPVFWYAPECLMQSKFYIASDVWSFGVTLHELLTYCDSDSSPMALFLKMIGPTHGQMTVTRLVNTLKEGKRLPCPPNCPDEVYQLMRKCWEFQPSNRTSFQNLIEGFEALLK
Interleukin-1 receptor-associated kinase 1, sequence (P51617 whole entry): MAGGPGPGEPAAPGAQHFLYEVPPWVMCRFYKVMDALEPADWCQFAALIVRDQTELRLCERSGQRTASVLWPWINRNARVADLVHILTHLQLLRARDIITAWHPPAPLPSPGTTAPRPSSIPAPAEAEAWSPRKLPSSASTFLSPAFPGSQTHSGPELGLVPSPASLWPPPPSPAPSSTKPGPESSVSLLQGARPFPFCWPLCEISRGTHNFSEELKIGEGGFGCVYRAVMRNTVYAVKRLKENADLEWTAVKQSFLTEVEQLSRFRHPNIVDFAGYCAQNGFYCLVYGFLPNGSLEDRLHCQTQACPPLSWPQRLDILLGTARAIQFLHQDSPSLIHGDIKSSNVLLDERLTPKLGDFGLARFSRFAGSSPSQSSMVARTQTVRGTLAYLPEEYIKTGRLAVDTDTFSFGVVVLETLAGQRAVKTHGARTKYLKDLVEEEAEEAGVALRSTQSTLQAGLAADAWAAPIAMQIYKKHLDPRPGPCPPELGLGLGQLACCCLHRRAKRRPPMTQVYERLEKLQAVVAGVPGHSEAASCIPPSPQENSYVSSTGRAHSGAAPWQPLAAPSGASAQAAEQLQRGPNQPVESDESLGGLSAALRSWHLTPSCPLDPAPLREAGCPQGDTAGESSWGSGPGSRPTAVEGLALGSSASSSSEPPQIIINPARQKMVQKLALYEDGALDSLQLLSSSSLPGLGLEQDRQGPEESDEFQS
Cyclin-dependent kinase 1, sequence (P06493 whole entry): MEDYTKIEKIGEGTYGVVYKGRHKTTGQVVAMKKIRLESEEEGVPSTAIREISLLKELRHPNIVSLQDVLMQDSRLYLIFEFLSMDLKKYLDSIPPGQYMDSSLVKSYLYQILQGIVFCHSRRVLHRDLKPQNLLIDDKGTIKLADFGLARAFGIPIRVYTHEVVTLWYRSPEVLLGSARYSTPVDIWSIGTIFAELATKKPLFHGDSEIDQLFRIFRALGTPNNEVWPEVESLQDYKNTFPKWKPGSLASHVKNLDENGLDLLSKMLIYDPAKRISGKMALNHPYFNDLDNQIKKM

Consider `COc1cc(C(=O)Nc2ccc(NC(=O)c3ccccn3)cc2)cc(N2CCC(=O)NC2=O)c1`, for which the IC50 in series [1] was 1.7 µM; in series [2] it was 0.071 µM; at Aurora kinase B, 14.3 µM; in series [4], above 30 µM; in series [5], above 30 µM; in [6] it was above 30 µM. Further, the IC50 in series [7], in [8], in series [9], in [10] and in series [11] was above 30 µM in each case. Besides, the fraction unbound at 0.5 h, 10 µM in [3] was 0.097.
Turning to `COc1cc(C(=O)Nc2ccc(NC(=O)c3ccccc3)cc2)ccc1OCC(=O)O`, the IC50 in series [1] is above 67 µM; in series [2], 23 µM; at Aurora kinase B, above 30 µM; in series [4] it was above 30 µM; in [5], above 30 µM; in series [6], above 30 µM. Besides, the half-inhibitory concentration (IC50) in series [7], in series [8], in series [9], in series [10] and in [11] was above 30 µM in each case.
As to `COc1cc(C(=O)Nc2ccc(NC(=O)c3ccccn3)cc2)cc(-c2c[nH]c(=O)[nH]c2=O)c1`, the concentration for half-maximal inhibition (IC50) was 0.027 µM in [1]; 0.0017 µM in [2]; above 30 µM at Aurora kinase B; above 30 µM in series [4]; above 30 µM in series [5]; above 30 µM in [6]. Moreover, the IC50 in series [7], in series [8], in [9], in series [10] and in series [11] was above 30 µM throughout.
On to `COc1cc(C(=O)Nc2ccc(NC(=O)c3ccccc3)cc2)ccc1O`, for which the IC50 was 18 µM in [1]; 1.4 µM in series [2]; above 30 µM on Aurora kinase B; above 30 µM in [4]; above 30 µM in series [5]; above 30 µM in series [6]. For the same compound, the half-maximal inhibitory concentration (IC50) in [7], in [8], in series [9], in [10] and in series [11] was above 30 µM in each case. The fraction unbound at 0.5 h, 10 µM in [3] is below 0.01.
Consider `COc1cc(C(=O)Nc2ccc(NC(=O)c3ccccc3)cc2)c(N)cc1O`, for which the IC50 was 5.9 µM in series [1]; 6.1 µM in series [2]; above 30 µM on Aurora kinase B; above 30 µM in [4]; above 30 µM in [5]; above 30 µM in [6]. Further, the half-maximal inhibitory concentration (IC50) in series [7], in [8], in [9], in series [10] and in [11] was above 30 µM throughout. Moreover, the fraction unbound at 0.5 h, 10 µM in series [3] was 0.011.
`COc1cc2c(Nc3ccc(NC(=O)c4ccccc4)cc3)ncnc2cc1O`: the IC50 is 1.3 µM in series [1]; 0.26 µM in series [2]; 0.275 µM at Aurora kinase B; above 30 µM in series [4]; above 30 µM in series [5]; above 30 µM in [6]. The 50% inhibitory concentration (IC50) in [7], in series [8], in series [9], in [10] and in series [11] was above 30 µM in each case.
As for `COc1cc2c(Nc3ccc(NC(=O)c4ccccc4)cc3)ncnc2cc1OCC(N)=O`, the IC50 in series [1] is above 22 µM; in series [2], above 22 µM; at Aurora kinase B it was 0.155 µM; in [4], above 30 µM; in [5] it was above 30 µM; in series [6], above 30 µM. Also, the IC50 in series [7], in series [8], in [9], in series [10] and in series [11] was above 30 µM each time.
With `COc1cc2c(Nc3ccc(NC(=O)c4ccccc4)cc3)ncnc2cc1OCCO`, the concentration for half-maximal inhibition (IC50) was 35 µM in series [1]; 19 µM in series [2]; 0.0273 µM on Aurora kinase B; 24.4 µM in series [4]; above 30 µM in [5]; above 30 µM in series [6]. The IC50 in series [7], in series [8], in [9], in [10] and in series [11] was above 30 µM throughout.
As to `COc1cc2c(Nc3ccc(NC(=O)c4ccccc4)cc3)ncnc2cc1OCC(=O)O`, the IC50 is 6.7 µM in series [1]; 3.2 µM in [2]; 0.689 µM at Aurora kinase B; above 30 µM in [4]; above 30 µM in [5]; above 30 µM in [6]. In addition, the IC50 in [7], in series [8], in series [9], in series [10] and in series [11] was above 30 µM throughout. Further, the fraction unbound at 0.5 h, 10 µM in [3] was below 0.01.
As to `O=C(Nc1ccc(NC(=O)c2ccccn2)cc1)c1cccc(-c2c[nH]c(=O)[nH]c2=O)c1`, the IC50 was 0.35 µM in [1]; 0.005 µM in series [2]; 7.51 µM on Aurora kinase B; above 30 µM in series [4]; above 30 µM in series [5]; above 30 µM in [6]. Moreover, the IC50 in [7], in series [8], in [9], in [10] and in [11] was above 30 µM in each case. In addition, in series [3], the fraction unbound at 0.5 h, 10 µM was 0.019.
For `COc1cc2c(Nc3ccc(NC(=O)c4ccccc4)cc3)nc(C)nc2cc1O`, the IC50 is 2.2 µM in series [1]; 0.39 µM in [2]; above 30 µM on Aurora kinase B; above 30 µM in [4]; above 30 µM in series [5]; above 30 µM in series [6]. In addition, the half-maximal inhibitory concentration (IC50) in series [7], in [8], in series [9], in [10] and in series [11] was above 30 µM throughout. Also, the fraction unbound at 0.5 h, 10 µM in series [3] is 0.097.
Consider `COc1cc2c(Nc3ccc(NC(=O)c4ccccc4)cc3)nc(N)nc2cc1O`, for which the IC50 in series [1] is 10.5 µM; in series [2], 1.7 µM; at Aurora kinase B, above 30 µM; in series [4], above 30 µM; in [5] it was above 30 µM; in [6], above 30 µM. For the same compound, the IC50 in series [7], in series [8], in series [9], in [10] and in series [11] was above 30 µM each time. In [3], the fraction unbound at 0.5 h, 10 µM is 0.023.
